Experimental data reported in patent publication US20240309018A1, “THIAZOLE-LACTAM-SPIROHETEROCYCLIC COMPOUNDS AND APPLICATIONS THEREOF” (D3 BIO (WUXI) CO., LTD, priority 2021, published 2024).
Entries after “also recorded” stand apart in the source; their conditions may differ.

Key:
HT29 tumor cells = test: In vitro cell proliferation inhibition (CellTiterGlo); format: cell-based; conditions: Homo sapiens, HT-29
Procedure: The ability of the compound to inhibit the proliferation of HT29 tumor cells was measured.
The assay compound was dissolved in 100% DMSO to prepare 10 mM stock solution.
• 1) UV light of a biological safety cabin was turned on, and 30 minutes were counted down; • 2) In a 37° C. water bath, RPMI1640 medium and trypsin were preheated; • 3) After completion of the UV irradiation, the biological safety cabin was opened. The preheated medium, trypsin and phosphate buffered saline (PBS), etc. were wiped with alcohol and placed in the biological safety cabin; • 4) HT29 cells were removed from the incubator, and the old medium was removed in biological safety cabin. 10 ml of PBS was added. The mixture was shaken gently, and then PBS was removed; • 5) 1.5 ml of preheated 0.25% trypsin was added. […] The signal value was then detected. The data were analyzed using XL-Fit, and the IC50 of each compound was calculated.

[1] = In vivo PK study in SD rats; design: species or system rat; conditions: male SD rats
Procedure: Male SD rats were used as assay animals. After a single administration, the plasma concentration of the compound was measured and the pharmacokinetic behavior was evaluated.
Six healthy adult male SD rats were selected, wherein 3 rats were in an intravenous injection group and 3 rats were in an oral group. The vehicle in the intravenous injection group was 5% DMSO+95% (20% HP-β-CD). The compound to be assayed was mixed with an appropriate amount of vehicle for intravenous injection, vortexed and sonicated to prepare a clear solution of 0.2 mg/mL. The clear solution was filtered by a microporous membrane, and then ready for use. The vehicle in the oral group was 5% DMSO+95% (20% HP-β-CD). The compound to be assayed was mixed with the vehicle, vortexed and sonicated to prepare a solution of 1 mg/mL. SD rats were administered 1 mg/kg intravenously or 10 mg/kg orally, and then whole blood was collected for a certain period. Plasma was prepared. The drug concentration was analyzed by LC-MS/MS method, and the pharmacokinetic parameters were calculated by Phoenix WinNonlin software (Pharsight, USA).

[2] = Body weight and tolerance in A375 model animals; format: in vivo; conditions: 12.5, 25 and 50 mg/kg PO BID, to the 21st day
Procedure: • 3) Daily observation of assay animals: The development of this assay protocol and any modifications were evaluated and approved by the Institutional Animal Care and Use Committee (IACUC). The use and welfare of assay animals were carried out in accordance with the regulations of the Association for Assessment and Accreditation of Laboratory Animal Care (AAALAC). Animals were monitored daily for health and death. […] Animal deaths and side effects in each group were recorded based on the number of animals in each group. • 4) Formulation of assay compound • a) Vehicle group: 5% DMSO+95% (20% HP-β-CD). • b) Assay compound group: A quantitative amount of the assay compound was weighed in a formulation bottle. […] A corresponding volume of 20% HP-β-CD was added and then the mixture was vortexed to obtain a homogeneous suspension. • 5) Tumor measurement and assay indicator: • a) Tumor diameter was measured twice a week with a vernier caliper. The calculation formula of tumor volume was: TV=1/2×a×b^2, wherein a and b represent the long and short diameters of tumor, respectively: • b) The tumor-inhibitory efficacy of the compound was evaluated by TGI (%). […]

Cc1cccc(CN2C(=O)c3nc(-c4nc(Nc5ccnn5C)ncc4C)sc3C23COC3)n1 [WX001]
IC50 (HT29 tumor cells): 66 nM | Oral DNAUC ([1]; 10 mg/kg orally, AUCPO/Dose): 1445.79 nM · h/mpk | clearance ([1]; rat, plasma, intravenous, 1 mg/kg intravenously or 10 mg/kg orally): 13.4 mL/min/kg | Vd ([1]; rat, plasma, intravenous, 1 mg/kg intravenously or 10 mg/kg orally, read-out: Vdss): 1.08 L/kg | half-life ([1]; rat, plasma, 1 mg/kg intravenously or 10 mg/kg orally): 3.77 h | bioavailability ([1]; rat, plasma, 1 mg/kg intravenously, 10 mg/kg orally, oral bioavailability): 49% | Cmax ([1]; rat, single dose, 1 mg/kg intravenously or 10 mg/kg orally, plasma): 2500 nM | body weight of animals [2]: did not decrease significantly; also recorded: not observed to decrease significantly | tolerance [2]: good
